What was measured:
[1] = test system: SAMMSON RNA level in A375 melanoma cells carrying BRAF^V600E mutation; assay: qRT-PCR analysis of SAMMSON RNA level after kinase inhibitor treatment; conditions: 2 μM inhibitor, 0, 6 and 24 hours, actin as internal control
Experimental: (§3) Melanoma cell lines 1205Lu and A375 carrying BRAF^V600E mutation and HEK293FT cells were cultured in a 37° C. constant temperature incubator (containing 5% CO2). The A375 and HEK293FT cells were cultured in Dulbecco's Modified Eagle's Medium (DMEM), and the 1205Lu cells were cultured in Roswell Park Memorial Institute 1640 medium (RPMI 1640 medium). Both of the media contain 10% fetal bovine serum, penicillin (100 units/ml), and streptomycin (100 μg/ml).
(§4) Total RNA was extracted from the melanoma cells using TriPure Isolation Reagent (Roche, Basel, Switzerland), and then reverse transcribed into cDNA using the kit PrimeScript RT Master Mix (Takara #DRR036A, Osaka, Japan). Quantitative real-time PCR reactions were performed using iQ SYBR Green Supermix (BioRad), and analyzed by CFX Connect real-time PCR detection system (BioRad).

[2] = test system: SAMMSON RNA level in 1205Lu melanoma cells carrying BRAF^V600E mutation; assay: as above; conditions: 1205Lu cells, 2 μM inhibitor, 0, 6 and 24 hours, actin as internal control
Experimental: as §3, §4

[3] = test system: A375 cells; assay: Annexin-V/PI apoptosis assay with SAMMSON siRNA knockdown and vemurafenib; format: cell-based; conditions: then 5 μM vemurafenib 48 hours
Experimental: (§1) The cells were collected, washed twice with PBS and stained for 20-30 minutes using Annexin-V-FLUOS kit (Roche) according to the manufacturer's protocol. The stained cells were analyzed by a flow cytometer (Beckman Coulter, Indianapolis Ind., USA). The data were analyzed using Flowjo software (Three Star, Inc., Ashland, Oreg., USA).
The non-targeting control siRNA sequence is:
We tested whether the up-regulation of SAMMSON induced by the inhibition of the ERK signaling pathway is involved in the adaptive drug-resistance of melanoma cells. Two pairs of specific siRNAs (SEQ ID NO: 4 and SEQ ID NO: 5) were used to knock down SAMMSON in two melanoma cell lines A375 and 1205Lu carrying BRAF mutations. […] Referring also to FIGS. 3C to 3F, in A375 cells, percentage of cell apoptosis increased from 19% to 43% (SAM #1) and 37% (SAM #2), and in 1205Lu cells, from 26% to 43% (SAM #1) and 46% (SAM #2).

[4] = test system: 1205Lu TR SAMMSON cells; assay: Annexin-V/PI apoptosis assay with doxycycline-induced SAMMSON overexpression; format: cell-based; conditions: 5 μM vemurafenib 48 hours
Experimental: (§2) The wild-type HA-SOX10 cDNA or SAMMSON cDNA was cloned into a pENTR/D-TOPO vector (Thermo Fisher Scientific) to construct an entry vector. Then, the entry vector and a pLentipuro/TO/V5-DEST vector were recombined to form a lentiviral vector. Lentivirus packaging for the lentiviral vector was performed in HEK293FT cells to produce lentiviruses. The melanoma cells 1205Lu and A375 were infected with the lentiviruses for 72 hours, and then screened by using puromycin to produce A375-TR HA-SOX10 WT cells, 1205Lu-TR HA-SOX10 WT cells, A375-TR SAMMSON cells and 1205Lu-TR SAMMSON cells.
as §1

[5] = test system: A375 TR SAMMSON cells; assay: as above; format: cell-based; conditions: 5 μM vemurafenib 48 hours
Experimental: as §2, §1

[6] = with 100 ng/ml doxycycline 72 hours (SAMMSON overexpressed)

O=C(Nc1ccc2[nH]nc(-c3ccncc3)c2c1)[C@@H]1CCN(CC(=O)N2CCN(c3ccc(-c4ncccn4)cc3)CC2)C1 [SCH772984]
RNA level of SAMMSON [1]: rapidly up-regulate the RNA level of SAMMSON | RNA level of SAMMSON [2]: rapidly up-regulate the RNA level of SAMMSON

SAM #2: SAMMSON-specific siRNA, SEQ ID NO: 5, 5′-CCAACUCUCAAAGUAACUU-3′ (listed as RNA, chemistry not given here)
percentage of cell apoptosis ([3]; SAMMSON siRNA 48 hours): 37%

SAM #1: SAMMSON-specific siRNA, SEQ ID NO: 4, 5′-GUCGCUAGACAUUUGAGGA-3′ (listed as RNA, chemistry not given here)
percentage of cell apoptosis ([3]; SAMMSON siRNA 48 hours): 43%

CCCS(=O)(=O)Nc1ccc(F)c(C(=O)c2c[nH]c3ncc(-c4ccc(Cl)cc4)cc23)c1F [vemurafenib, Vemurafenib]
percentage of cell apoptosis ([3]; control siRNA 48 hours): 19% | percentage of cell apoptosis [4, 6]: 33% | percentage of cell apoptosis ([4]; without doxycycline): 44% | percentage of cell apoptosis [5, 6]: 33% | percentage of cell apoptosis ([5]; without doxycycline): 51%

Reference: patent publication US20220298511A1, “APPLICATION OF COMBINED INHIBITION OF LNCRNA SAMMSON AND BRAF KINASE IN DELAYING ADAPTIVE DRUG-RESISTANCE OF MELANOMA” (XI'AN JIAOTONG UNIVERSITY, priority 2021, published 2022)
